In ChEMBL document CHEMBL1124036 (J Med Chem, 1988):

tested on: Vaccinia virus; experiment: Virus rating on vaccinia virus measured as the degree of inhibition of virus induced cytopathogenic effect in L929 cells; assay type: functional, Orthopoxvirus vaccinia; conditions: not given

Row | SMILES | Virus rating
1 | [N-]=[N+]=N[C@H]1C(n2cnc3c(N)nc(Cl)nc32)O[C@H](CO)[C@@H]1O (some centres undefined) | 0.8
2 | Nc1nc(Cl)nc2c1ncn2C1O[C@H](CO)[C@H](O)[C@H]1I (some centres undefined) | 0
3 | Nc1nc(F)nc2c1ncn2C1O[C@H](CO)[C@H](O)[C@H]1Cl (some centres undefined) | 0.6
4 | Nc1nc(Cl)nc2c1ncn2C1O[C@H](CO)[C@H](O)[C@H]1N (some centres undefined) | 0.6
5 | Nc1nc(F)nc2c1ncn2C1O[C@H](CO)[C@H](O)[C@H]1N (some centres undefined) | 0.7
6 | [N-]=[N+]=N[C@H]1C(n2cnc3c(N)nc(F)nc32)O[C@H](CO)[C@@H]1O (some centres undefined) | 2.4
7 | Nc1nc(Cl)nc2c1ncn2C1O[C@H](CO)[C@H](O)[C@H]1Cl (some centres undefined) | 0.7
8 | Nc1nc(Cl)nc2c1ncn2C1O[C@H](CO)[C@H](O)[C@H]1Br (some centres undefined) | 0.4

tested on: Vaccinia virus; experiment: The minimum inhibitory concentration required for 50% inhibition of vaccinia virus induced cytopathogenic effect in L929 cells; G indicates CPE reduction <50%; assay type: functional, organism-based; conditions: Orthopoxvirus vaccinia

Row | SMILES | MIC50
9 | Nc1nc(Cl)nc2c1ncn2C1O[C@H](CO)[C@H](O)[C@H]1N (some centres undefined) | CPE reduction <50%
